# Assay results published in patent US9938238B2, “Anti-auxin compounds” (priority 2015, dated 2018).
# How the values were obtained:
# Type in all cases: in vivo, Arabidopsis
# [1] = system: chiB and PDF1.2 expression; experiment: Expression of ethylene regulated defense genes in leaves; conditions: 24 h
# Procedure: (§1) Total RNA was extracted from leaf tissue using the RNeasy Plant Mini Kit (Qiagen, Valencia, Calif.). 10 μg of total RNA was separated by electrophoresis in a 1% (w/v) denaturing agarose gel, after which the RNA was blotted to Zeta-Probe GT Blotting Membrane (Bio-Rad, Hercules, Calif.). ^32P-labelled probes were generated using the RadPrime DNA labeling system (Invitrogen).
# For this analysis, Arabidopsis plants were grown hydroponically for 13 d after which they were treated with or without 10 μM ACC in the absence or presence of 25 μM PA, with all samples exposed to 10 μM+/−JA for the 24 h treatment period. […] Auxin functions in a synergistic manner with ethylene and JA to control expression of PDF1.2, with addition of auxin resulting in its hyperinduction (Robles et al., 2012).
# [2] = system: ETR2, AtEBP, ACO2 expression; experiment: Northern analysis of ethylene responsive gene expression in seedlings; conditions: Col-0 wt, hydroponic, dark 4 d
# Procedure: as §1
# Manifestation of ethylene response is dependent on transcriptional induction of ethylene-regulated genes (Alonso et al., 2003; Chao et al., 1997; Solano et al., 1998). This relies on two primary transcription factors, EIN3 and EIL1, with mutational loss of both causing nearly complete ethylene insensitivity. It could be predicted that since PA treatment limits ethylene response it would also reduce or prevent ethylene inducible gene expression similar to the ethylene insensitive ein3-1; eil1-1 double mutant. To test this, Col-0 wt seedlings were treated with 5 μM AgNO3 or increasing concentrations of ethylene in the absence or presence of 25 μM PA, which is also a concentration that results in blockage of ethylene response. […] The latter two genes are not properly expressed in a group of enhanced ethylene response Arabidopsis mutants, with these argued to be members of a subset of ethylene regulated genes whose products are required for controlling the magnitude of ethylene response (Christians and Larsen, 2007; Christians et al., 2008; Deslauriers and Larsen, 2010; Robles et al., 2007).
# In contrast to PA treatment, auxin has an antagonistic relationship regarding induction of this same subset of genes. Col-0 wt seedlings were grown hydroponically in the dark for 4 d in the presence of 5 μM AgNO3, 1 μM ACC or 10 μM ACC in the absence or presence of 10 μM 1-naphthaleneacetic acid (NAA) after which tissue was collected for RNA isolation and Northern analysis.
# DR5::GUS = experiment: GUS analysis of auxin responsive DR5::GUS reporter line; conditions: for GUS activity in root tip and mature region of the root, auxin alone: 100 nM NAA or 750 nM IAA
# Procedure: GUS analysis of DR5::GUS lines was performed as previously described (Ni et al., 2001).
# Auxin responsiveness has also been assessed using the Arabidopsis DR5::GUS transgenic line in which several auxin response elements are fused upstream of the GUS reporter gene (Ni et al., 2001). Normally, treatment of DR5::GUS lines with exogenous auxin leads to increased GUS levels, which can be visualized through accumulation of blue color upon adding X-Gluc.
# Col-0 wt seedlings = experiment: Blockage of auxin dependent inhibition of root growth; conditions: for root length, auxin alone: light, 7 d, 150 nM NAA or 300 nM IAA versus untreated roots
# Procedure: For screening for chemicals that reduce ethylene response, Arabidopsis ctr1-3 seeds were planted on a microtiter plate containing PNS media in the presence of individual chemicals (50 μM concentration of each) from the Microsource Spectrum Collection. Seedlings were grown in the dark for 4 d after which they were scored for manifestation of the ethylene responsive triple response. For all other growth experiments, seedlings were planted on PNS media supplemented with the relevant chemical (Deslauriers and Larsen, 2010). For conditions requiring pamoic acid, media was supplemented with Pamoic acid disodium salt (Sigma Life Science, St. Louis, Mo.). Measurement of ethylene production was conducted as previously described (Deslauriers and Larsen, 2010). […]
# ctr1-3 seedlings = experiment: Seedling triple response of constitutive ethylene response mutant ctr1-3 (library screen and follow-up); conditions: etiolated ctr1-3 in air, 4 d, 50 μM of each chemical
# Procedure: For screening for chemicals that reduce ethylene response, Arabidopsis ctr1-3 seeds were planted on a microtiter plate containing PNS media in the presence of individual chemicals (50 μM concentration of each) from the Microsource Spectrum Collection. Seedlings were grown in the dark for 4 d after which they were scored for manifestation of the ethylene responsive triple response. For all other growth experiments, seedlings were planted on PNS media supplemented with the relevant chemical (Deslauriers and Larsen, 2010). For conditions requiring pamoic acid, media was supplemented with Pamoic acid disodium salt (Sigma Life Science, St. Louis, Mo.). Measurement of ethylene production was conducted as previously described (Deslauriers and Larsen, 2010).
# A chemical library screen was performed in which etiolated seedlings of the constitutive ethylene response mutant, ctr1-3, were grown in air for 4 d in the presence of chemicals from the Microsource Spectrum Collection, a bioactive and natural compound library consisting of 2000 different compounds. ctr1-3 seedlings were scored for presentation of the ethylene regulated seedling triple response, consisting of severe hypocotyl and root shortening and exaggerated apical hook formation.
smiles,measurement,setting,value
"NC1(C(=O)O)CC1 [ACC, 1-aminocyclopropane-1-carboxylic acid]",chiB and PDF1.2 expression,"[1]; plants grown 13 d hydroponically, 10 μM ACC, 10 μM JA",increased expression
same,induction of ACO2 and AtEBP,[2]; 1 μM or 10 μM ACC without NAA,normal ethylene responsive induction
"O=C(O)Cc1c[nH]c2ccccc12 [IAA, indole-3-acetic acid]","GUS activity in root tip and mature region of the root, auxin alone",DR5::GUS,increased GUS activity
same,"lateral root initiation, auxin alone",DR5::GUS; 750 nM IAA (FIG. 8),promotes initiation of lateral roots
same,"root length, IAA alone","Col-0 wt seedlings; 5 days, 300 nM IAA in the absence of Tolmetin (FIG. 6)",severely inhibitory to roots
same,"root length, auxin alone",Col-0 wt seedlings,severe root growth inhibition
"O=C(O)Cc1cccc2ccccc12 [NAA, 1-naphthaleneacetic acid]","GUS activity in root tip and mature region of the root, auxin alone",DR5::GUS,increased GUS activity
same,chiB and PDF1.2 levels,[1]; 10 μM ACC supplemented with 250 nM NAA,far greater than what was observed following treatment with ACC alone
same,"root length, auxin alone",Col-0 wt seedlings,severe root growth inhibition
same,induction of ACO2 and AtEBP,[2]; 1 μM or 10 μM ACC plus 10 μM NAA,nearly eliminated induction
same,ETR2 expression,[2]; ACC treatments plus 10 μM NAA,no obvious effect on ETR2 expression
CN1CCCN=C1/C=C/c1cccs1 [Pyrantel pamoate],apical hook formation in chemical library screen,ctr1-3 seedlings,blocked apical hook formation
same,root length in chemical library screen,ctr1-3 seedlings,measurably longer roots
